Residues, ends and D or L forms follow the SMILES beside them.
What was measured:
[1] = tested on: Human immunodeficiency virus 1; test: Thermal stability of HIV1 envelope glycoprotein gp41 His-tagged N-terminal heptad repeat N54-drug complex assessed as thermal unfolding transition state by measuring molar ellipticity at 4 to 90 degC by circular dichroic spectra analysis
[2] = tested on: Human immunodeficiency virus 1; test: Binding affinity to HIV1 His-tagged N-terminal heptad repeat of envelope glycoprotein gp41 assessed as recovery of N54-drug complex after 2 hrs by LC-MS analysis; parameters: concentration or dose not given beside the values
[3] = tested on: Human immunodeficiency virus 1; test: Antiviral activity against HIV1 NL4-3 harboring gp41 D36G mutant infected in human HeLa cells expressing CD4-LTR-beta-gal assessed as inhibition of viral replication after 48 hrs by MAGI assay; type: functional, organism-based

SMILES | Tm [1] | Activity [2] | EC50 [3]
CC[C@H](C)[C@H](NC(=O)[C@H](CC(C)C)NC(=O)[C@H](CCC(=O)O)NC(=O)[C@H](CCC(=O)O)NC(=O)[C@@H](NC(=O)[C@H](CC(C)C)NC(=O)[C@H](CO)NC(=O)[C@@H](NC(=O)[C@H](Cc1ccc(O)cc1)NC(C)=O)[C@@H](C)O)[C@@H](C)CC)C(=O)N[C@@H](CCCCN)C(=O)N[C@@H](CCCCN)C(=O)N[C@@H](Cc1cnc[nH]1)C(=O)N[C@@H](CCC(=O)O)C(=O)N[C@@H](CCC(=O)O)C(=O)N[C@@H](CCC(N)=O)C(=O)N[C@@H](CCC(N)=O)C(=O)N[C@@H](CCCCN)C(=O)N[C@@H](CCCCN)C(=O)N[C@@H](CC(N)=O)C(=O)N[C@@H](CCC(=O)O)C(=O)N[C@@H](CCC(=O)O)C(=O)N[C@@H](CCC(=O)O)C(=O)N[C@@H](CC(C)C)C(=O)N[C@@H](CCCCN)C(=O)N[C@@H](CCCCN)C(=O)N[C@@H](CC(C)C)C(=O)N[C@@H](CCC(=O)O)C(=O)N[C@@H](CCC(=O)O)C(=O)N[C@@H](Cc1c[nH]c2ccccc12)C(=O)N[C@@H](C)C(=O)N[C@@H](CCCCN)C(=O)N[C@@H](CCCCN)C(=O)N[C@@H](Cc1c[nH]c2ccccc12)C(=O)N[C@@H](CC(N)=O)C(=O)N[C@@H](Cc1c[nH]c2ccccc12)C(=O)N[C@@H](Cc1ccccc1)C(N)=O (Ac-YTSLIEELIKKHEEQQKKNEEELKKLEEWAKKWNWF-NH2) | 58.5 °C | 3.2% | 35 nM
CC[C@H](C)[C@H](NC(=O)[C@H](CC(C)C)NC(=O)[C@H](CCC(=O)O)NC(=O)[C@H](CCC(=O)O)NC(=O)[C@@H](NC(=O)[C@H](CC(C)C)NC(=O)[C@H](CO)NC(=O)[C@@H](NC(=O)[C@H](Cc1ccc(O)cc1)NC(C)=O)[C@@H](C)O)[C@@H](C)CC)C(=O)N[C@@H](CCCCN)C(=O)N[C@@H](CCCCN)C(=O)N[C@@H](CO)C(=O)N[C@@H](CCC(=O)O)C(=O)N[C@@H](CCC(=O)O)C(=O)N[C@@H](CCSC)C(=O)N[C@@H](CCC(N)=O)C(=O)N[C@@H](CCCCN)C(=O)N[C@@H](CCCCN)C(=O)N[C@@H](CC(N)=O)C(=O)N[C@@H](CCC(=O)O)C(=O)N[C@@H](CCC(=O)O)C(=O)N[C@@H](CCC(=O)O)C(=O)N[C@@H](CC(C)C)C(=O)N[C@@H](CCCCN)C(=O)N[C@@H](CCCCN)C(=O)N[C@@H](CC(C)C)C(=O)N[C@@H](CCC(=O)O)C(=O)N[C@@H](CCC(=O)O)C(=O)N[C@@H](Cc1c[nH]c2ccccc12)C(=O)N[C@@H](C)C(=O)N[C@@H](CCCCN)C(=O)N[C@@H](CCCCN)C(=O)N[C@@H](Cc1c[nH]c2ccccc12)C(=O)N[C@@H](CC(N)=O)C(=O)N[C@@H](Cc1c[nH]c2ccccc12)C(=O)N[C@@H](Cc1ccccc1)C(N)=O (Ac-YTSLIEELIKKSEEMQKKNEEELKKLEEWAKKWNWF-NH2) | 74.6 °C | 9.2% | 0.9 nM
CC[C@H](C)[C@H](NC(=O)[C@H](CC(C)C)NC(=O)[C@H](CCC(=O)O)NC(=O)[C@H](CCC(=O)O)NC(=O)[C@@H](NC(=O)[C@H](CC(C)C)NC(=O)[C@H](CO)NC(=O)[C@@H](NC(=O)[C@H](Cc1ccc(O)cc1)NC(C)=O)[C@@H](C)O)[C@@H](C)CC)C(=O)N[C@@H](CCCCN)C(=O)N[C@@H](CCCCN)C(=O)N[C@@H](CO)C(=O)N[C@@H](CCC(=O)O)C(=O)N[C@@H](CCC(=O)O)C(=O)N[C@@H](CC(N)=O)C(=O)N[C@@H](CCC(N)=O)C(=O)N[C@@H](CCCCN)C(=O)N[C@@H](CCCCN)C(=O)N[C@@H](CC(N)=O)C(=O)N[C@@H](CCC(=O)O)C(=O)N[C@@H](CCC(=O)O)C(=O)N[C@@H](CCC(=O)O)C(=O)N[C@@H](CC(C)C)C(=O)N[C@@H](CCCCN)C(=O)N[C@@H](CCCCN)C(=O)N[C@@H](CC(C)C)C(=O)N[C@@H](CCC(=O)O)C(=O)N[C@@H](CCC(=O)O)C(=O)N[C@@H](Cc1c[nH]c2ccccc12)C(=O)N[C@@H](C)C(=O)N[C@@H](CCCCN)C(=O)N[C@@H](CCCCN)C(=O)N[C@@H](Cc1c[nH]c2ccccc12)C(=O)N[C@@H](CC(N)=O)C(=O)N[C@@H](Cc1c[nH]c2ccccc12)C(=O)N[C@@H](Cc1ccccc1)C(N)=O (Ac-YTSLIEELIKKSEENQKKNEEELKKLEEWAKKWNWF-NH2) | 69 °C | 4.4% | 3.6 nM
CC[C@H](C)[C@H](NC(=O)[C@H](CC(C)C)NC(=O)[C@H](CCC(=O)O)NC(=O)[C@H](CCC(=O)O)NC(=O)[C@@H](NC(=O)[C@H](CC(C)C)NC(=O)[C@H](CO)NC(=O)[C@@H](NC(=O)[C@H](Cc1ccc(O)cc1)NC(C)=O)[C@@H](C)O)[C@@H](C)CC)C(=O)N[C@@H](CCCCN)C(=O)N[C@@H](CCCCN)C(=O)N[C@@H](Cc1ccc(O)cc1)C(=O)N[C@@H](CCC(=O)O)C(=O)N[C@@H](CCC(=O)O)C(=O)N[C@@H](CCC(N)=O)C(=O)N[C@@H](CCC(N)=O)C(=O)N[C@@H](CCCCN)C(=O)N[C@@H](CCCCN)C(=O)N[C@@H](CC(N)=O)C(=O)N[C@@H](CCC(=O)O)C(=O)N[C@@H](CCC(=O)O)C(=O)N[C@@H](CCC(=O)O)C(=O)N[C@@H](CC(C)C)C(=O)N[C@@H](CCCCN)C(=O)N[C@@H](CCCCN)C(=O)N[C@@H](CC(C)C)C(=O)N[C@@H](CCC(=O)O)C(=O)N[C@@H](CCC(=O)O)C(=O)N[C@@H](Cc1c[nH]c2ccccc12)C(=O)N[C@@H](C)C(=O)N[C@@H](CCCCN)C(=O)N[C@@H](CCCCN)C(=O)N[C@@H](Cc1c[nH]c2ccccc12)C(=O)N[C@@H](CC(N)=O)C(=O)N[C@@H](Cc1c[nH]c2ccccc12)C(=O)N[C@@H](Cc1ccccc1)C(N)=O (Ac-YTSLIEELIKKYEEQQKKNEEELKKLEEWAKKWNWF-NH2) | 61.1 °C | 4.7% | 5 nM
CC[C@H](C)[C@H](NC(=O)[C@H](CC(C)C)NC(=O)[C@H](CCC(=O)O)NC(=O)[C@H](CCC(=O)O)NC(=O)[C@@H](NC(=O)[C@H](CC(C)C)NC(=O)[C@H](CO)NC(=O)[C@@H](NC(=O)[C@H](Cc1ccc(O)cc1)NC(C)=O)[C@@H](C)O)[C@@H](C)CC)C(=O)N[C@@H](CCCCN)C(=O)N[C@@H](CCCCN)C(=O)N[C@@H](CC(N)=O)C(=O)N[C@@H](CCC(=O)O)C(=O)N[C@@H](CCC(=O)O)C(=O)N[C@@H](CCC(N)=O)C(=O)N[C@@H](CCC(N)=O)C(=O)N[C@@H](CCCCN)C(=O)N[C@@H](CCCCN)C(=O)N[C@@H](CC(N)=O)C(=O)N[C@@H](CCC(=O)O)C(=O)N[C@@H](CCC(=O)O)C(=O)N[C@@H](CCC(=O)O)C(=O)N[C@@H](CC(C)C)C(=O)N[C@@H](CCCCN)C(=O)N[C@@H](CCCCN)C(=O)N[C@@H](CC(C)C)C(=O)N[C@@H](CCC(=O)O)C(=O)N[C@@H](CCC(=O)O)C(=O)N[C@@H](Cc1c[nH]c2ccccc12)C(=O)N[C@@H](C)C(=O)N[C@@H](CCCCN)C(=O)N[C@@H](CCCCN)C(=O)N[C@@H](Cc1c[nH]c2ccccc12)C(=O)N[C@@H](CC(N)=O)C(=O)N[C@@H](Cc1c[nH]c2ccccc12)C(=O)N[C@@H](Cc1ccccc1)C(N)=O (Ac-YTSLIEELIKKNEEQQKKNEEELKKLEEWAKKWNWF-NH2) | 65.7 °C | 3.5% | 4.8 nM
